In ChEMBL document CHEMBL1201862, “PubChem BioAssay data set” (2004):
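Protocol summary: plate cells (96-well), add compound at 5 concentrations, incubate 48 h, interpolate endpoints linearly. GI50 is the concentration that inhibits growth by half.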 Calls of active or inactive are those of the source. Cut-off read from the data, not from the text of the source: active = GI50 up to about 1.1 µM and inactive = higher.

What was measured:
Assay in all cases: growth of human tumour cells (NCI), 48 h
HOP-92 = tested on: HOP-92
SF-295 = tested on: SF-295
NCI-H522 = tested on: NCI-H522
NCI-H460 = tested on: NCI-H460
SR = tested on: SR
OVCAR-3 = tested on: OVCAR-3
RPMI-8226 = tested on: RPMI-8226
SK-MEL-28 = tested on: SK-MEL-28
COLO 205 = tested on: COLO 205
SF-268 = tested on: SF-268
U-251 = tested on: U-251
K562 = tested on: K562
HCT-15 = tested on: HCT-15
786-0 = tested on: 786-0
HT-29 = tested on: HT-29
KM12 = tested on: KM12
SK-MEL-2 = tested on: SK-MEL-2
SNB-19 = tested on: SNB-19

Row | SMILES | GI50 (HOP-92) | GI50 (SF-295) | GI50 (NCI-H522) | GI50 (NCI-H460) | GI50 (SR) | GI50 (OVCAR-3) | GI50 (RPMI-8226) | GI50 (SK-MEL-28) | GI50 (COLO 205) | GI50 (SF-268) | GI50 (U-251) | GI50 (K562) | GI50 (HCT-15) [µM] | GI50 (786-0) | GI50 (HT-29) | GI50 (KM12) | GI50 (SK-MEL-2) | GI50 (SNB-19)
1 | CCOC1=C2N=C(Cc3ccccc3F)N=C2C(=O)c2ccccc21 | > 100 µM (inactive) | > 100 µM (inactive) | > 100 µM (inactive) | > 100 µM (inactive) | > 100 µM (inactive) | > 100 µM (inactive) | > 100 µM (inactive) | > 100 µM (inactive) | > 100 µM (inactive) | > 100 µM (inactive) | > 100 µM (inactive) | > 100 µM (inactive) | > 100 | > 100 µM (inactive) | > 100 µM (inactive) | > 100 µM (inactive) | > 100 µM (inactive) | > 100 µM (inactive)
2 | Cc1c2ccncc2c(C)c2c1[nH]c1ccc(OC(C)(C)C)cc12 | 9.82 µM (inactive) | 2.07 µM (inactive) | 2.44 µM (inactive) | 1.93 µM (inactive) |  | 1.73 µM (inactive) | 2.08 µM (inactive) | 1.76 µM (inactive) | 1.47 µM (inactive) | 5.12 µM (inactive) | 2.82 µM (inactive) | 2.08 µM (inactive) |  | 1.53 µM (inactive) | 2.29 µM (inactive) |  | 2.03 µM (inactive) | 2.47 µM (inactive)
3 | NC(CCCNCc1ccccc1)C(=O)O (stereo not given) | > 100 µM (inactive) | > 10 µM (inactive) | > 100 µM (inactive) | > 100 µM (inactive) |  | > 100 µM (inactive) | > 100 µM (inactive) | > 100 µM (inactive) | > 100 µM (inactive) | > 100 µM (inactive) |  | > 100 µM (inactive) | > 100 | > 100 µM (inactive) | > 100 µM (inactive) | > 100 µM (inactive) | > 100 µM (inactive) | > 100 µM (inactive)
4 | CCc1ccc(Cc2ccc(CC)c(NC(=O)C(=O)Cc3nc4ccccc4nc3C)c2CC)c(CC)c1NC(=O)C(=O)Cc1nc2ccccc2nc1C | 4.02 µM (inactive) |  | 26.4 µM (inactive) | > 100 µM (inactive) |  | 15 µM (inactive) | > 100 µM (inactive) | 66.7 µM (inactive) | > 100 µM (inactive) | 33.3 µM (inactive) | 49.7 µM (inactive) | > 100 µM (inactive) | > 100 | > 100 µM (inactive) |  | > 100 µM (inactive) | > 100 µM (inactive) | 45.1 µM (inactive)
5 | CCCCCCCCCCCc1cc(=O)c2c(O)cccc2o1 | > 100 µM (inactive) | 87.5 µM (inactive) | 71.1 µM (inactive) | 79.1 µM (inactive) | 26.1 µM (inactive) | > 100 µM (inactive) | 30.6 µM (inactive) | 94.6 µM (inactive) | > 100 µM (inactive) | > 100 µM (inactive) | 95.7 µM (inactive) | 43.7 µM (inactive) | 54.8 | > 100 µM (inactive) | 53.7 µM (inactive) | 54.2 µM (inactive) | 24.1 µM (inactive) | > 100 µM (inactive)
6 | COc1ccc(C(=O)C=C2NCCN2)cc1 | > 100 µM (inactive) | > 100 µM (inactive) | > 100 µM (inactive) | > 100 µM (inactive) | > 100 µM (inactive) | > 100 µM (inactive) | > 100 µM (inactive) | > 100 µM (inactive) | > 100 µM (inactive) | > 100 µM (inactive) | > 100 µM (inactive) | > 100 µM (inactive) |  | > 100 µM (inactive) | > 100 µM (inactive) | > 100 µM (inactive) | > 100 µM (inactive) | > 100 µM (inactive)
7 | O=C(O)c1cc(S(=O)(=O)N/N=C\c2c3ccccc3[n+]([O-])c3ccccc23)ccc1O | 9.64 µM (inactive) | 4.45 µM (inactive) | 8.3 µM (inactive) | 5.96 µM (inactive) |  | 40.1 µM (inactive) | 7.48 µM (inactive) | 12.3 µM (inactive) | 15.1 µM (inactive) | 11.7 µM (inactive) | 23.2 µM (inactive) | 8.61 µM (inactive) | 5.96 | 11.7 µM (inactive) | 19.5 µM (inactive) | 23.8 µM (inactive) | 16.9 µM (inactive) | 31.6 µM (inactive)
8 | CCOC(=O)C(Cc1ccccc1)NC(=O)c1nc[nH]c1/N=N/N(C)C (stereo not given) |  | > 100 µM (inactive) | > 100 µM (inactive) | > 100 µM (inactive) | > 100 µM (inactive) | > 100 µM (inactive) | > 100 µM (inactive) | > 100 µM (inactive) | > 100 µM (inactive) | > 100 µM (inactive) | > 100 µM (inactive) | > 100 µM (inactive) | > 100 | > 100 µM (inactive) | > 100 µM (inactive) | > 100 µM (inactive) | > 100 µM (inactive) | > 100 µM (inactive)
9 | COC(=O)C1=C(C(=O)OC)C2(CCCCCC2=O)OC1=O (stereo not given) | > 100 µM (inactive) | > 100 µM (inactive) | > 100 µM (inactive) | > 100 µM (inactive) |  | > 100 µM (inactive) | > 100 µM (inactive) | > 100 µM (inactive) | > 100 µM (inactive) | > 100 µM (inactive) | > 100 µM (inactive) | > 100 µM (inactive) | > 100 | > 100 µM (inactive) | > 100 µM (inactive) | > 100 µM (inactive) | > 100 µM (inactive) | > 100 µM (inactive)
10 | Cc1cc(C)nc(NS(=O)(=O)c2ccc(Nc3c4ccccc4nc4c(C(=O)Nc5ccc(S(=O)(=O)Nc6cc(C)on6)cc5)ccc(Cl)c34)cc2)n1 |  | 20.7 µM (inactive) | 21.5 µM (inactive) | 22 µM (inactive) | 21.1 µM (inactive) | 17 µM (inactive) | 20.6 µM (inactive) | 27.7 µM (inactive) |  | 27.2 µM (inactive) | 15.9 µM (inactive) | 27.8 µM (inactive) | 28.9 | 17.9 µM (inactive) | 23.4 µM (inactive) | 17.3 µM (inactive) |  | 22.4 µM (inactive)
11 | N#CC1(CCCCl)CCCCC1 | > 100 µM (inactive) | > 100 µM (inactive) | > 100 µM (inactive) | > 100 µM (inactive) | > 100 µM (inactive) | > 100 µM (inactive) |  | > 100 µM (inactive) | > 100 µM (inactive) | > 100 µM (inactive) | > 100 µM (inactive) | > 10 µM (inactive) | > 100 | > 100 µM (inactive) | > 100 µM (inactive) | > 100 µM (inactive) | > 100 µM (inactive) | > 100 µM (inactive)
12 | O=C(O)CCNCCCCNCCC(=O)O | > 100 µM (inactive) | > 100 µM (inactive) | > 100 µM (inactive) | > 100 µM (inactive) |  | > 100 µM (inactive) | > 100 µM (inactive) | > 100 µM (inactive) | > 100 µM (inactive) | > 100 µM (inactive) | > 100 µM (inactive) | > 100 µM (inactive) | > 100 | > 100 µM (inactive) | > 100 µM (inactive) | > 100 µM (inactive) | > 100 µM (inactive) | > 100 µM (inactive)
13 | CC(=O)OC1CC2C(C)(C)C(=O)C=C[C@]2(C)C2CCC3(C)C(=CCC3[C@H](CO)C[C@H](O)C(=O)C(C)(C)O)[C@]12C (stereo not given in full) |  | 12.9 µM (inactive) | 23.6 µM (inactive) | 16.6 µM (inactive) | 25.4 µM (inactive) | 19.5 µM (inactive) | 22.3 µM (inactive) | 19.4 µM (inactive) | 42.1 µM (inactive) | 25.9 µM (inactive) | 16.7 µM (inactive) | 27 µM (inactive) | 17.8 | 19.7 µM (inactive) | 13.8 µM (inactive) | 19.1 µM (inactive) | 20.7 µM (inactive) | 31.7 µM (inactive)
14 | CCOP(=O)(OCC)C(C(=O)OC)C(=O)C(=O)Nc1ccc(Cl)cc1Cl (stereo not given) | > 100 µM (inactive) |  | > 100 µM (inactive) | > 100 µM (inactive) |  | > 100 µM (inactive) | > 100 µM (inactive) | > 100 µM (inactive) | > 100 µM (inactive) | > 100 µM (inactive) | > 100 µM (inactive) | > 100 µM (inactive) | > 100 | > 100 µM (inactive) | > 100 µM (inactive) | > 100 µM (inactive) | > 100 µM (inactive) | > 100 µM (inactive)
15 | O=C(Nc1cc(Cl)c(Cl)cc1Cl)C(=O)C(C(=O)c1ccccc1)C1OC(=O)c2ccccc21 (stereo not given) | > 100 µM (inactive) | > 100 µM (inactive) | > 100 µM (inactive) | > 100 µM (inactive) | 97.7 µM (inactive) | > 100 µM (inactive) | > 100 µM (inactive) | > 100 µM (inactive) | > 100 µM (inactive) | > 100 µM (inactive) | > 100 µM (inactive) | > 100 µM (inactive) | > 100 | > 100 µM (inactive) | > 100 µM (inactive) | > 100 µM (inactive) |  | > 100 µM (inactive)
16 | CCCCCCCCCCn1cccc1/C=C/c1ccc(/C=C/c2cccn2CCCCCCCCCC)cc1 | > 100 µM (inactive) | > 100 µM (inactive) | > 100 µM (inactive) | > 100 µM (inactive) |  | > 100 µM (inactive) | > 100 µM (inactive) | > 100 µM (inactive) | > 100 µM (inactive) | > 100 µM (inactive) | > 100 µM (inactive) | > 100 µM (inactive) |  | > 100 µM (inactive) | > 100 µM (inactive) | > 100 µM (inactive) |  | > 100 µM (inactive)
17 | COc1ccc(C=C(c2ccc(OCc3ccccc3)cc2)c2ccc(OCc3ccccc3)cc2)cc1 |  | > 100 µM (inactive) | > 100 µM (inactive) | > 100 µM (inactive) | > 100 µM (inactive) | > 100 µM (inactive) | > 100 µM (inactive) | > 100 µM (inactive) | > 100 µM (inactive) | > 100 µM (inactive) | > 100 µM (inactive) |  | > 100 | > 100 µM (inactive) | > 100 µM (inactive) | > 100 µM (inactive) | > 100 µM (inactive) | > 100 µM (inactive)
